Patent publication US20240398989A1, “METHODS AND COMPOSITIONS FOR DIAGNOSIS AND TREATMENT OF METABOLIC DISORDERS” (The Broad Institute, Inc., priority 2021, published 2024)

Test system: primary human hepatocytes (PHH)
Experiment: LipocyteProfiler of drug-treated primary human hepatocytes
Format: cell-based
Conditions: for appearance of the cytoskeleton, Golgi and plasma membrane (AGP Texture_AngularSecondMoment): 5 mM metformin for 24h vs control, p=9.96e-08
Protocol: Primary human hepatocytes (PHH) were purchased from BioIVT. Donor lot YNZ was used in this study. PHH were thawed and immediately resuspended in CP media (BioIVT) supplemented with torpedo antibiotic (BioIVT). Cell count and viability were assessed by trypan blue exclusion test prior to plating. […] Four hours after plating, media was replaced with fresh CP media. After 24 h, media was replaced with fresh CP media or CP media containing oleic acid (0.3 mM) or metformin (5 mM). Hepatocytes were incubated for an additional 24 h prior to processing. Human primary AMSCs and PHH were plated in 96-well CellCarrier plates (Perkinelmer #6005550). […] Primary human hepatocytes were stained after 48 h in culture, and 24h following treatment with oleic acid or metformin. On the respective day of the assay, cell culture media was removed and replaced by 0.5 μM Mitotracker staining solution (1 mM MitoTracker Deep Red stock (Invitrogen #M22426) diluted in culture media) to each well followed by 30 minutes incubation at 37° C.' protected from light. […] PFA was removed and cells were washed once with Hank's Balanced Salt Solution (1×), HBSS (Gibco #14025076). […] Finally, staining solution was removed and cells were washed three times with HBSS. Cells were imaged using a Opera Phenix High content screening system. […] Prior to processing, flat field illumination correction was performed using functions generated from the median intensity across each plate. Nuclei were identified using the DAPI stain and then expanded to identify whole cells using the Phalloidin/WGA and BODIPY stains. Regions of cytoplasm were then determined by removing the Nuclei from the Cell segmentations. Speckles of BODIPY staining were enhanced to assist in detection of small and large individual Lipid objects. For each object set measurements were collected representing size, shape, intensity, granularity, texture, colocalization and distance to neighbouring objects. After LipocyteProfiler (LP) feature extraction data was filtered by applying automated and manual quality control steps. […] Second, every field was assessed visually and fields that were corrupted by experimental induced technical artifacts were removed. Furthermore, blocklisted features (Way, Gregory (2019): Blocklist Features-Cell Profiler. figshare. […] After filtering data were normalised per plate using a robust scaling approach (Pedregosa et al. 2011) that subtracts the median from each variable and divides it by the interquartile range. Individual wells were aggregated for downstream analysis by cell depot and day of differentiation.

[1] = PHH metformin treatment (5 mM, 24h), t-test

In the case of CN(C)C(=N)N=C(N)N [metformin], the “Nuclei_Radial Distribution_MeanFrac_Mito_3of4 t-statistics” value [1] is reported as 2.6E+01, the Nuclei_RadialDistribution_FracAtD_AGP_3of4 t-statistics [1] is reported as −2.7E+01 and the Nuclei_RadialDistribution_FracAtD_DNA_2of4 t-statistics [1] is reported as 3.0E+01. It also gave a Nuclei_RadialDistribution_FracAtD_Lipid_1of4 t-statistics [1] of −1.2E+01, a Nuclei_RadialDistribution_FracAtD_Mito_3of4 t-statistics [1] of 2.4E+01 and a Nuclei_RadialDistribution_MeanFrac_AGP_3of4 t-statistics [1] of −2.7E+01. It also gave a Nuclei_RadialDistribution_MeanFrac_DNA_2of4 t-statistics [1] of 3.8E+01, a Nuclei_RadialDistribution_MeanFrac_Lipid_2of4 t-statistics [1] of −7.9E+00 and a Nuclei_RadialDistribution_RadialCV_AGP_3of4 t-statistics [1] of 2.5E+01. It also gave a Nuclei_RadialDistribution_RadialCV_DNA_3of4 t-statistics [1] of 9.7E+01, a Nuclei_RadialDistribution_RadialCV_Lipid_3of4 t-statistics [1] of 2.2E+01 and a Nuclei_RadialDistribution_RadialCV_Mito_2of4 t-statistics [1] of 3.7E+01. It also gave a Nuclei_Texture_AngularSecondMoment_AGP_10_02 t-statistics [1] of 1.2E+01, a Nuclei_Texture_AngularSecondMoment_DNA_20_03 t-statistics [1] of 9.4E+00 and a Nuclei_Texture_AngularSecondMoment_Lipid_5_03 t-statistics [1] of 4.2E+00. For the same compound, the Nuclei_Texture_AngularSecondMoment_Mito_5_02 t-statistics [1] was −1.8E+01, the Nuclei_Texture_Contrast_AGP_10_03 t-statistics [1] was −1.8E+01 and the Nuclei_Texture_Contrast_DNA_5_01 t-statistics [1] was 5.8E+00. It also gave a Nuclei_Texture_Contrast_Lipid_20_02 t-statistics [1] of 4.3E+00, a Nuclei_Texture_Contrast_Mito_5_03 t-statistics [1] of 6.8E+00 and a Nuclei_Texture_Correlation_AGP_10_03 t-statistics [1] of 3.0E+01. The Nuclei_Texture_Correlation_DNA_10_00 t-statistics [1] was −1.6E+01, the Nuclei_Texture_Correlation_Lipid_5_03 t-statistics [1] was 2.3E+01 and the Nuclei_Texture_Correlation_Mito_5_02 t-statistics [1] was 1.5E+01. For the same compound, the Nuclei_Texture_DifferenceEntropy_AGP_10_00 t-statistics [1] was −2.1E+01, the Nuclei_Texture_DifferenceEntropy_DNA_10_03 t-statistics [1] was −8.0E+00 and the Nuclei_Texture_DifferenceEntropy_Lipid_20_01 t-statistics [1] was 8.2E+00. For the same compound, the Nuclei_Texture_DifferenceEntropy_Mito_20_00 t-statistics [1] was 8.0E+00, the Nuclei_Texture_DifferenceVariance_AGP_10_00 t-statistics [1] was 1.4E+01 and the Nuclei_Texture_DifferenceVariance_DNA_20_03 t-statistics [1] was 7.3E+00. It also gave a Nuclei_Texture_DifferenceVariance_Lipid_20_00 t-statistics [1] of 5.6E+00, a Nuclei_Texture_DifferenceVariance_Mito_10_00 t-statistics [1] of −8.1E+00 and a Nuclei_Texture_Entropy_AGP_5_00 t-statistics [1] of −1.7E+01. For the same compound, the Nuclei_Texture_Entropy_DNA_10_03 t-statistics [1] was −7.7E+00, the Nuclei_Texture_Entropy_Lipid_20_01 t-statistics [1] was 7.3E+00 and the Nuclei_Texture_Entropy_Mito_5_02 t-statistics [1] was 1.3E+01. It also gave a Nuclei_Texture_InfoMeas1_AGP_10_03 t-statistics [1] of 2.6E+01, a Nuclei_Texture_InfoMeas1_Lipid_20_03 t-statistics [1] of −8.6E+00 and a Nuclei_Texture_InfoMeas2_DNA_10_03 t-statistics [1] of −1.3E+01. The Nuclei_Texture_InfoMeas2_Mito_5_01 t-statistics [1] was 1.3E+01, the Nuclei_Texture_InverseDifferenceMoment_AGP_10_00 t-statistics [1] was 2.1E+01 and the Nuclei_Texture_InverseDifferenceMoment_DNA_20_03 t-statistics [1] was 1.5E+01. The Nuclei_Texture_InverseDifferenceMoment_Lipid_20_00 t-statistics [1] was 7.5E+00, the Nuclei_Texture_InverseDifferenceMoment_Mito_10_00 t-statistics [1] was −1.4E+01 and the Nuclei_Texture_SumAverage_AGP_10_00 t-statistics [1] was −1.8E+01. The Nuclei_Texture_SumAverage_DNA_10_01 t-statistics [1] was −1.8E+01, the Nuclei_Texture_SumAverage_Lipid_10_00 t-statistics [1] was −6.6E+00 and the Nuclei_Texture_SumAverage_Mito_20_00 t-statistics [1] was 8.5E+00. For the same compound, the Nuclei_Texture_SumEntropy_AGP_5_00 t-statistics [1] was −1.9E+01, the Nuclei_Texture_SumEntropy_DNA_10_03 t-statistics [1] was −7.8E+00 and the Nuclei_Texture_SumEntropy_Lipid_20_01 t-statistics [1] was 8.0E+00. For the same compound, the Nuclei_Texture_SumEntropy_Mito_5_02 t-statistics [1] was 1.1E+01, the Nuclei_Texture_SumVariance_AGP_10_03 t-statistics [1] was −1.7E+01 and the Nuclei_Texture_SumVariance_DNA_5_02 t-statistics [1] was 6.2E+00. It also gave a Nuclei_Texture_SumVariance_Lipid_20_01 t-statistics [1] of 6.0E+00, a Nuclei_Texture_SumVariance_Mito_5_02 t-statistics [1] of 7.3E+00 and a Nuclei_Texture_Variance_AGP_10_03 t-statistics [1] of −1.8E+01. For the same compound, the Nuclei_Texture_Variance_DNA_5_00 t-statistics [1] was 5.8E+00, the Nuclei_Texture_Variance_Lipid_20_00 t-statistics [1] was 4.7E+00 and the Nuclei_Texture_Variance_Mito_5_02 t-statistics [1] was 6.9E+00. The “BODIPY Texture Entropy” value (PHH, 5 mM metformin for 24h, p 6.98e-04) was “difference”, the “mitochondrial membrane potential (Mito MeanIntensity)” value (PHH, 5 mM metformin for 24h, p 0.0104) was “increased” and the “cell size (AreaShape MinorAxislength)” value (PHH, 5 mM metformin for 24h, p=3.11e-12) was “smaller”. The “cell size (AreaShape Area)” value (PHH, 5 mM metformin for 24h, p=3.87e-11) was “smaller”, the “lipid droplet number (LargeBODIPYObjects_Count)” value (PHH, 5 mM metformin for 24h, p=2.37e-07) was “reduced” and the “lipid content (BODIPY MeanIntensity)” value (PHH, 5 mM metformin for 24h, p=6.11e-06) was “reduced”. For the same compound, the “mitochondrial fusion (Mito Texture_angularSecondMoment, Mito Texture Entropy, Mito Texture_InfoMeas1)” value (PHH, 5 mM metformin for 24h, p=7.58e-05, p=6.66e-06, p=2.17e-12) was “increased”, the “appearance of the cytoskeleton, Golgi and plasma membrane (AGP Texture_AngularSecondMoment)” value (PHH) was “less uniform” and the “appearance of the cytoskeleton, Golgi and plasma membrane (AGP Texture_AngularSecondMoment)” value (PHH, listed as Metformin) was “reduced cytoskeletal randomness”.
